Results taken from patent US20190070128A1, “USE OF CANNABIDIVARIN IN THE TREATMENT OF AUTISM SPECTRUM DISORDER, ASSOCIATED DISORDERS AND SCHIZOPHRENIA” (GW Research Limited, priority 2016, published 2019).

Tested on: Ube3am-/p+ (AS) mice
Assay: audiogenic seizure susceptibility in Angelman syndrome mice
Type: in vivo, mouse
Conditions: for mice experiencing seizures: baseline 100%
Method: Heterozygous mice with maternal deficiency of Ube3A (Ube3am−/p+) and wild type (Ube3am+/p+) were purchased from The Jackson Laboratory (Jackson code: B6.12957-Ube3a tm1Alb/J) and maintained in a C57BL/6 background.
For the audiogenic seizure tests CBDV was administered at 20, 200 and 400 mg/kg.
Seizure susceptibility: Audiogenic seizures were induced by vigorously scraping scissors across the metal grating of the cage lid which produces a 100 DB high frequency loud noise. This was done for 20 seconds. This test consists of 3 phases. In phase 1 all mice were tested for epilepsy. In phase 2 all mice were injected daily with either vehicle or a drug for 7 or 10 days. In phase 3 mice were tested for epilepsy (one hour after last injection).

C=C(C)[C@@H]1CCC(C)=C[C@H]1c1c(O)cc(CCC)cc1O [CBDV, Cannabidivarin]
seizure susceptibility (AS mice, 20 mg/kg or 200 mg/kg, 7 or 10 days treatment): no effect | number of mice with seizures (AS mice, 400 mg/kg): statistically significant decrease | mice experiencing seizures (AS mice, 400 mg/kg, after 7 days treatment): 60% | mice experiencing seizures (AS mice, 400 mg/kg, after 10 days treatment): 30% | reduction of seizure susceptibility (Angelman mice, 400 mg/kg, after 10 days treatment): 70%
